Assay type in all cases: cell-based
One assay relates to ALDH. In words: ALDEFLUOR flow cytometry analysis of ALDH activity in HNC-TIC-like oral stem cells. The conditions noted are these: DEAB-added group (150 µM DEAB), with or without BP treatment; Figure 8. The protocol:
ALDH protein is also an important stemness-maintenance marker of cancer stem cells and participates in the regulation of the self-renewal and differentiation of cancer stem cells. HNC-TIC-like oral stem cells (i.e., ALDH1^+CD44^+-1 cell line or ALDH1^+CD44^+-2 cell line) were treated with different concentrations (0, 25 and 50 µg/ml) of BP for 24 hours, and then, 1 ×10^5 cells obtained from each group were separately suspended in 50 µl of a stem cell detection kit (i.e., ALDEFLUOR array kit, purchased from […] Technologies Inc., Vancouver, Canada) buffer and the cell suspension of each group was separately added with ALDEFLUOR to a final concentration of 1 µM. Thereafter, a sample of each group was stained by […] and then analyzed by flow cytometry analysis to determine the ALDH activity of HNC-TIC-like oral stem cells (i.e., ALDH1^+CD44^+-1 cell line and ALDH1^+CD44^+-2 cell line).
The above experimental procedure was repeated, but the cell suspension of each group was further added with N,N-diethylaminobenzaldehyde (DEAB, i.e., an inhibitor of ALDH) to a final concentration of 150 µM of DEAB separately.

The subject of assay [1] is malignant glioma DBTRG cells. Put plainly: MTT cell viability assay on malignant glioma DBTRG cells. The settings on record: 24-hour group. As for the experimental part: Thereafter, a cell viability assay, MTT assay, was utilized to analyze the viabilities of brain CSCs ^CD133+ and malignant glioma DBTRG cells. […] The results are shown in Figure 1A and Figure 1B for 24-hour group and 48-hour group (i.e., the treatment for 24 hours and 48 hours) and in Table 1 for 24-hour group.

For another assay, the system named is brain CSCs ^CD133+. In words: MTT cell viability assay on brain CSCs CD133+. The settings on record: 24-hour group, MTT assay; read-out: IC50 to brain CSCs ^CD133+. An excerpt: Thereafter, a cell viability assay, MTT assay, was utilized to analyze the viabilities of brain CSCs ^CD133+ and malignant glioma DBTRG cells. […]

Where “and” joins values, the source holds several entries; their conditions need not be identical. Identical values can stand only once.

In the case of `CCN(CC)c1ccc(C=O)cc1` [DEAB, N,N-diethylaminobenzaldehyde, reference compound], the “live cells with ALDH activity, of total live cells” value with ALDH is reported as 0.1%.

In the case of `O=NN(CCCl)C(=O)NCCCl` [BCNU, bis-chloroethylnitrosourea], in assay [1], the IC50 was 352 µM and 75.4 µg/mL.

Turning to `Cn1nnc2c(C(N)=O)ncn2c1=O` [TMZ, temozolomide, reference compound], the IC50 in the assay with brain CSCs ^CD133+ was > 1.6 mM and > 311 µg/mL; in assay [1], 1.66 mM and 322 µg/mL.

These data come from patent publication EP3338775B1, “USE OF BUTYLIDENEPHTHALIDE” (Everfront Biotech Inc., priority 2015, dated 2017).
